In patent publication US20190018003A1, “TUMOR DISCRIMINATION METHOD, DIAGNOSTIC AGENT FOR TUMOR, AND SENSITIZER FOR TUMOR DIAGNOSIS” (TOTO LTD., priority 2017, published 2019):

What was measured:
Type in all cases: cell-based, human
[1] = system: WI-38 immortalized normal cells; assay: Co-culture in the same visual field, fluorescence of WI-38 cell region; conditions: Example 11, WI-38 cell line, ALA 2 mmol/l, particles 0.001 w/v %
Source text: Co-culture pertaining to the present example for having the tumor cells and the immortalized normal cells exist in the same visual field will be described with reference to FIGS. 1A and 1B. For the co-culture, there was used CytoSelect™ 24-Well Cell Co-Culture System (manufactured by COSMO BIO). The T24 cell line was subcultured in an MEM medium (MEM, GlutaMAX™ supplement (Thermo Fisher Scientific), 10 v/v % FBS (Thermo Fisher Scientific)). The cultured cells which reached a logarithmic growth phase 3 days or 4 days later were peeled off with Trypsin/EDTA (Thermo Fisher Scientific) and, after the reaction was terminated in an MEM medium, centrifuged. The cell pellet obtained was suspended in an MEM medium. The cell suspension was subjected to measurement of cell density and inoculated onto a well at a density of 4.4×10^4 cells/0.225 ml/well, the well having an insert 2 of an 8 mm diameter disposed for preparing a cell-free region therein, and cultured for 2 days to form a monolayer in region 3 around the insert 2.
WI-38 cells were subcultured in an MEM medium. […]
Detection of fluorescence was performed in the same manner as in Example 4 by using an inverted fluorescence microscope (ECLIPSE Ti-E, Nikon). Images having a visual field of 3300 μm (width)×2200 μm (length) were obtained, and relative fluorescence intensities were calculated in the same manner as in Example 5.

[2] = system: T24 urinary bladder cancer cells; assay: Fluorescence enhancement in T24 cells by simultaneous administration of fluorescent dye (ALA) and particles; conditions: Example 8, administration of fluorescent dye only, immediately after observation light irradiation
Protocol: An aqueous ALA solution (50 mmol/l) was mixed into an MEM medium (MEM, GlutaMAX™ supplement (Thermo Fisher Scientific)) to form a 4 mmol/l ALA solution. Further, an aqueous solution of light scattering particles (2) (ii) was mixed into an MEM medium to form light scattering particle solutions of 0.001, 0.002, and 0.02 w/v %.
Evaluation was performed as follows. The medium of the T24 cells on a 6-well plate, obtained in Example 3, was removed by an aspirator, and thereto was added 2 ml of PBS (−) (Thermo Fisher Scientific). Once again, PBS (−) was removed by an aspirator, thereto was added 2 ml of a mixed solution obtained by mixing 1 ml of the ALA solution and 1 ml of the light scattering particle solution, and the system was cultured under conditions of 3TC and 5 v/v % CO2 for 2 hours. Then, the mixed solution of the cells on the 6-well plate was removed by an aspirator, thereto was added 2 ml of HBSS (−) (Thermo Fisher Scientific) to wash the residue, HBSS (−) was removed again by an aspirator, to the residue was added 2 ml of HBSS (−), and the solution was used for detection.
Detection of fluorescence was performed in the same manner as in Example 4 by using an inverted fluorescence microscope and, from the images acquired, fluorescence intensities were obtained and relative fluorescence intensities were calculated.

[3] = system: UM-UC-3 urinary bladder cancer cells; assay: Fluorescence enhancement in UM-UC-3 cells by separate administration of fluorescent dye (ALA) and particles, fluorescence microscope; conditions: Example 5, ALA 2 mmol/l, particles 0.001 w/v %, immediately after observation light irradiation
Protocol: UM-UC-3 cells (UMUC3, ATCC CRL-1749) were prepared. This cell line was subcultured in an E-MEM medium (ATCC-formulated Eagle's Minimum Essential Medium (ATCC), 10 v/v % FBS (Life Technologies)). The cultured cells which reached a logarithmic growth phase 3 days or 4 days later were peeled off with Trypsin/EDTA (Thermo Fisher Scientific) and, after the reaction was terminated in an E-MEM medium, centrifuged. The cell pellet obtained was suspended in an E-MEM medium. The cell suspension was subjected to measurement of cell density, inoculated onto a 6-well plate at a density of 3.6×10^4 cells/2 ml/well, and cultured for 3 days. […]
Evaluation was performed as follows. The medium of the UM-UC-3 cells on a 6-well plate, obtained in Example 3, was removed by an aspirator, and evaluation thereof was performed under conditions where PBS (−) and HBSS (−) in Example 4 were changed to the E-MEM medium and the MEM medium (no glutamine and no phenol red (Thermo Fisher Scientific), respectively, and the solution was used for detection of fluorescence.
Detection of fluorescence was performed in the same manner as in Example 4 by using an inverted fluorescence microscope (ECLIPSE Ti-E, Nikon). A fluorescence intensity was calculated by subtracting luminance corresponding to dark noise from the image acquired and thereafter obtaining average luminance of all pixels where fluorescence was acquired. […]

Measured: Relative fluorescence intensity

NCC(=O)CCC(=O)O [fluorescent dye, 5-aminolevulinic acid]
1.0: all assays above
